pEC50: −log10 of the molar value.

The experiment concerns HBV. Nature of the experiment: HBV inhibition assay: anti-HBV activity in vitro in HepG2.2.15 cells (extracellular HBV DNA by qPCR). It is filed as cell-based. To be noted: Hepatitis B virus, 120 h, five days after compound treatment, extracellular HBV DNA in culture supernatant by qPCR, concentration at which HBV replication is inhibited by 50%. From the text: Example 441: HBV Inhibition Assays
Cell Line and Culture Conditions:
HepG2.2.15 is a stably-transfected cell line containing the HBV genome. It is derived from the hepatoblastoma cell line Hep G2 (American Type Culture Collection, ATCC® HB-8065™) by the published procedures described in reference: MA Selles et al. Proc. Natl. Acad. Sci. USA 1987, 84, 1005-1009. The cell line was maintained in Dulbecco's modified Eagle's medium (DMEM)-F12 medium supplemented with 10% fetal bovine serum, 100 U/mL penicillin, 100 μg/mL streptomycin, and 0.5 mg/mL of G418.
Anti-HBV Activity In Vitro:
HepG2.2.15 cells were seeded into 96-well plates (3×10^4 cells in 100 μL media per well) and incubated overnight at 37° C. The test compounds were serially half-log diluted in DMSO, then diluted 100 times in culture media. 100 μL diluted compounds were added into the plates to reach 0.5% final concentration of DMSO in every well. Five days after compound treatment, culture supernatant was collected for further analysis.
For quantitative PCR detection of extracellular HBV DNA, culture supernatant was processed by Proteinase K digestion. After heat inactivation of the enzyme, the samples were subjected to HBV DNA quantification by qPCR. The effective compound concentration at which
HBV replication is inhibited by 50% (EC50) was determined.
Regarding `Cc1cc(NC(=O)N2Cc3c(-c4ccc(F)cn4)cnn3CC2C)cc(F)c1F` (stereo not drawn) [Example 156, N-(3,4-difluoro-5-methyl-phenyl)-3-(5-fluoro-2-pyridyl)-6-methyl-6,7-dihydro-4H-pyrazolo[1,5-a]pyrazine-5-carboxamide], the pEC50 is 7.60. As for `CC1CCN(c2cnn3c2CN(C(=O)Nc2ccc(F)c(Cl)c2)[C@@H](C)C3)C1=O` (stereo partly drawn) [Example 297, (6S)—N-(3-chloro-4-fluoro-phenyl)-6-methyl-3-(3-methyl-2-oxo-pyrrolidin-1-yl)-6,7-dihydro-4H-pyrazolo[1,5-a]pyrazine-5-carboxamide], the figure is 7.17. Regarding `C[C@H]1Cn2ncc(N3CC(C)(C)OC3=O)c2CN1C(=O)Nc1cc(F)c(F)c(C(F)F)c1` [Example 276, (6S)—N-[3-(difluoromethyl)-4,5-difluoro-phenyl]-3-(5,5-dimethyl-2-oxo-oxazolidin-3-yl)-6-methyl-6,7-dihydro-4H-pyrazolo[1,5-a]pyrazine-5-carboxamide], the pEC50 was 8.22.

Regarding `C[C@H]1Cn2ncc(N3C[C@@H](O)CC3=O)c2CN1C(=O)Nc1cc(F)c(F)c(F)c1` [Example 377, (6S)-3-[(4S)-4-hydroxy-2-oxo-pyrrolidin-1-yl]-6-methyl-N-(3,4,5-trifluorophenyl)-6,7-dihydro-4H-pyrazolo[1,5-a]pyrazine-5-carboxamide], the pEC50 is 7.09. Then `C[C@H]1Cn2ncc(N3CC(C(F)(F)F)CC3=O)c2CN1C(=O)Nc1ccnc(C(F)F)c1` (stereo partly drawn) [Example 241, (6S)—N-[2-(difluoromethyl)-4-pyridyl]-6-methyl-3-[2-oxo-4-(trifluoromethyl)pyrrolidin-1-yl]-6,7-dihydro-4H-pyrazolo[1,5-a]pyrazine-5-carboxamide], with 7.12; and `C[C@H]1Cn2ncc(N3C[C@@H](Oc4ncc(F)cn4)CC3=O)c2CN1C(=O)Nc1cc(F)c(F)c(F)c1` [Example 382, (6S)-3-[(4S)-4-(5-fluoropyrimidin-2-yl)oxy-2-oxo-pyrrolidin-1-yl]-6-methyl-N-(3,4,5-trifluorophenyl)-6,7-dihydro-4H-pyrazolo[1,5-a]pyrazine-5-carboxamide], with 7.80. Then `CC1CC(=O)N(c2cnn3c2CN(C(=O)Nc2ccc(F)c(Cl)c2)[C@@H](C)C3)C1` (stereo partly drawn) [Example 254, (6S)—N-(3-chloro-4-fluoro-phenyl)-6-methyl-3-(4-methyl-2-oxo-pyrrolidin-1-yl)-6,7-dihydro-4H-pyrazolo[1,5-a]pyrazine-5-carboxamide], with 7.41; and `C[C@H]1Cn2ncc(N3CC(c4ccc(Cl)nc4)OC3=O)c2CN1C(=O)Nc1cc(F)c(F)c(F)c1` (stereo partly drawn) [Example 409, (6S)-3-[5-(6-chloro-3-pyridyl)-2-oxo-oxazolidin-3-yl]-6-methyl-N-(3,4,5-trifluorophenyl)-6,7-dihydro-4H-pyrazolo[1,5-a]pyrazine-5-carboxamide], with 7.80.

Regarding `C[C@H]1Cn2ncc(N3CCCOC3=O)c2CN1C(=O)Nc1cc(F)c(F)c(F)c1` [Example 292, (6S)-6-methyl-3-(2-oxo-1,3-oxazinan-3-yl)-N-(3,4,5-trifluorophenyl)-6,7-dihydro-4H-pyrazolo[1,5-a]pyrazine-5-carboxamide], the pEC50 is 7.32. Then `C[C@H]1Cn2ncc(N3CC(c4cncnc4)CC3=O)c2CN1C(=O)Nc1cc(F)c(F)c(F)c1` (stereo partly drawn) [Example 413, (6S)-6-methyl-3-(2-oxo-4-pyrimidin-5-yl-pyrrolidin-1-yl)-N-(3,4,5-trifluorophenyl)-6,7-dihydro-4H-pyrazolo[1,5-a]pyrazine-5-carboxamide], with 7.12; and `Cc1cc(NC(=O)N2CCn3ncc(-c4ccc(F)cc4)c3C2)ccc1F` [Example 81, N-(4-fluoro-3-methyl-phenyl)-3-(4-fluorophenyl)-6,7-dihydro-4H-pyrazolo[1,5-a]pyrazine-5-carboxamide], with 7.49; and `C[C@H]1Cn2ncc(N3CC4(CCOCC4)CC3=O)c2CN1C(=O)Nc1ccc(F)c(Cl)c1` [Example 296, (6S)—N-(3-chloro-4-fluoro-phenyl)-6-methyl-3-(3-oxo-8-oxa-2-azaspiro[4.5]decan-2-yl)-6,7-dihydro-4H-pyrazolo[1,5-a]pyrazine-5-carboxamide], with 7.52. For the molecule `C[C@H]1Cn2ncc(-c3ccc(F)cn3)c2CN1C(=O)Nc1cc(F)c(F)c(F)c1` [Example 198, (6S)-3-(5-fluoro-2-pyridyl)-6-methyl-N-(3,4,5-trifluorophenyl)-6,7-dihydro-4H-pyrazolo[1,5-a]pyrazine-5-carboxamide], the pEC50 was 7.52. Then `C[C@H]1Cn2ncc(-c3ncc(F)cn3)c2CN1C(=O)Nc1cc(F)c(F)c(F)c1` [Example 341, (6S)-3-(5-fluoropyrimidin-2-yl)-6-methyl-N-(3,4,5-trifluorophenyl)-6,7-dihydro-4H-pyrazolo[1,5-a]pyrazine-5-carboxamide], with 7.40; and `C[C@H]1Cn2ncc(N3CC(C)(C)NC3=O)c2CN1C(=O)Nc1ccc(F)c(Cl)c1` [Example 245, (6S)—N-(3-chloro-4-fluoro-phenyl)-3-(4,4-dimethyl-2-oxo-imidazolidin-1-yl)-6-methyl-6,7-dihydro-4H-pyrazolo[1,5-a]pyrazine-5-carboxamide], with 7.28; and `C[C@H]1Cn2ncc(N3CC4(CC3=O)CN(c3ncccn3)C4)c2CN1C(=O)Nc1cc(F)c(F)c(F)c1` [Example 337, (6S)-6-methyl-3-(7-oxo-2-pyrimidin-2-yl-2,6-diazaspiro[3.4]octan-6-yl)-N-(3,4,5-trifluorophenyl)-6,7-dihydro-4H-pyrazolo[1,5-a]pyrazine-5-carboxamide], with 7.82. As for `CC1Cn2ncc(-c3ccc(F)cc3)c2CN1C(=O)Nc1ccc(F)c(C#N)c1` (stereo not drawn) [Example 86, N-(3-cyano-4-fluoro-phenyl)-3-(4-fluorophenyl)-6-methyl-6,7-dihydro-4H-pyrazolo[1,5-a]pyrazine-5-carboxamide], the figure is 7.18; as for `C[C@H]1Cn2ncc(N3CC(c4cccc(F)n4)OC3=O)c2CN1C(=O)Nc1cc(F)c(F)c(F)c1` (stereo partly drawn) [Example 411, (6S)-3-[5-(6-fluoro-2-pyridyl)-2-oxo-oxazolidin-3-yl]-6-methyl-N-(3,4,5-trifluorophenyl)-6,7-dihydro-4H-pyrazolo[1,5-a]pyrazine-5-carboxamide], 7.74.

As for `Cc1ncc(C2CC(=O)N(c3cnn4c3CN(C(=O)Nc3cc(F)c(F)c(F)c3)[C@@H](C)C4)C2)o1` (stereo partly drawn) [Example 349, (6S)-6-methyl-3-[4-(2-methyloxazol-5-yl)-2-oxo-pyrrolidin-1-yl]-N-(3,4,5-trifluorophenyl)-6,7-dihydro-4H-pyrazolo[1,5-a]pyrazine-5-carboxamide], the pEC50 is 7.82. In turn, `N#Cc1cc(NC(=O)N2CCn3ncc(-c4ccc(F)cc4F)c3C2)ccc1F` [Example 142, N-(3-cyano-4-fluoro-phenyl)-3-(2,4-difluorophenyl)-6,7-dihydro-4H-pyrazolo[1,5-a]pyrazine-5-carboxamide] showed a pEC50 of 7.25. Consider `C[C@H]1Cn2ncc(N3CC(c4ccc(F)cn4)OC3=O)c2CN1C(=O)Nc1cc(F)c(F)c(F)c1` (stereo partly drawn) [Example 410, (6S)-3-[5-(5-fluoro-2-pyridyl)-2-oxo-oxazolidin-3-yl]-6-methyl-N-(3,4,5-trifluorophenyl)-6,7-dihydro-4H-pyrazolo[1,5-a]pyrazine-5-carboxamide], for which the pEC50 was 7.43.

For the origin of these results see patent publication US11168086B2, “Methods of synthesizing pyrazine compounds” (Hoffmann-La Roche Inc., priority 2015, dated 2021).
